Results: patent US4849227A, “Pharmaceutical compositions” (Eurasiam Laboratories, Inc., priority 1987, dated 1989)
Where two headings read alike, the source gives them in different places.

Legend:
venous serum sugar level = assay: Test 1-C: bioassay in pigs, serum sugar level; type: in vivo, Yorkshire pigs; settings: 8 I.U. intravenously
Excerpt: FIG. 7 is a comparison of the venous serum sugar levels of two pigs, one given the composition of Example 1 and one given Actrapid. The venous serum sugar level of the pig given Example 1 is denoted by "o" and the venous serum sugar level of the pig given actrapid is denoted by "x". The x axis is in minutes and the y axis is in millimoles of serum glucose.
In this test, the oral insulin composition of Example 1 was compared with Actripid intravenous insulin solution (Novo) in a bioassay. Two Yorkshire pigs were fasted overnight and one pig was given 8 I.U. of the Actripid insulin intravenously. The other pig was given an intravenous infusion over a period of 15 minutes of 8 I.U. of the oral insulin composition of Example 1 that had been dissolved into 50 ml of water. Blood was taken from the pair of pigs and the serum sugar levels were measured. […] (See FIG. 7.)

plasma glucose level = assay: Test 12B: plasma glucose in a female dog; type: in vivo
Procedure: Hypoglycemic action of the formulation was compared to that of intra-duodenally administered regular injectable insulin (novo actrapid insulin, 1.0 IU per Kg) and of intravenously administered regular injectable insulin (novo actrapid insulin, 0.5 IU per Kg). After infusion of 1.26 IU of regular injectable insulin, intravenously, the plasma glucose level dropped from […] within 20 minutes and returned to […] within 3 hours. Then, 6 IU of regular injectable insulin was intra-duodenally given.

[1] = system: blood sugar (hypoglycemic effect); assay: Test 1-D: intravenous rabbit bioassay; type: in vivo, white rabbits; settings: rabbits, 4 I.U. i.v.; after completion of the infusion
Procedure: FIG. 8 is a comparison of Tong-Shin insulin, the oral insulin of Example 1, and Novo insulin, pursuant to the test of Test 1-D.
In this test, the oral insulin composition of Example 1 was compared with Novo monocomponent porcine crystalline insulin and a regular injectable insulin-40 (Tong-Shin Pharmaceutical Co.) in intravenous rabbit bioassays. Three white rabbits, each weighing 1.8 Kg were fasted overnight and were treated with an intravenous infusion over ten minutes of 4 I.U. of either the Novo insulin, the Tong-Shin insulin-40, or an emulsion comprising the oral insulin composition of Example 1. A venous blood sample was collected from the ear vein of each of the rabbits at 30 minutes prior to the insulin infusion and at times 0, 15, 30, 45, 60, 75, 90 and 105 minutes after completion of the infusions.

serum glucose levels = assay: Test 8: serum glucose in IDDM patients; type: in vivo, human; settings: Regular Insulin 0.172 IU/Kg s.c., Oral Insulin 0.649 IU/Kg
Excerpt: Seven Insulin-Dependent Diabetics (IDDM) patients, 6 males and one person, between 24 to 47 years old (average 34.4) weighing between 48 and 68 Kg each (average 58.6 kg) took between 32 to 48 (average 42.6) International Units of Oral Insulin Formulation of Example 7, orally, after fasting overnight and fasting throughout the study.
(§1) Each subject in Test 8 was given two capsules of the lipolytic enzyme composition set forth in Test 1-E with each dose of oral insulin.

[2] = Test 5-A: bioavailability of insulin (serum insulin); type: in vivo, human; settings: Regular Insulin 0.172 IU/Kg s.c.; Example 4 0.544 IU/Kg oral 1st dose; Example 5 0.649 IU/Kg oral 1st, fasting
Procedure: (§2) The bioavailability of insulin and its corresponding hypoglycemic effects of Example 4 and Example 5 oral insulin preparations were studied in a group of IDDM and NIDDM patients. Example 4 oral insulin was also studied in two normal, healthy male volunteers. In all of the tests set forth in 5-A, the subjects received with each dose of oral insulin two capsules of the lipolytic enzyme of Test 1-E.
(§3) At least 12 or 24 hours prior to the study the patients normal anti-diabetic therapeutic agents were withheld from the patients. After overnight fasting and fasting throughout the entire period of the study, Example 4 or Example 5 oral insulin preparations were orally administered.
(§4) A venous sampling catheter was placed into a vein, usually at the antecubital vein, and blood samples were drawn at time 0, 1.0, 1.5, 2.0, 2.5, 3.0, 4.0 and/or 5.0 hours after the drug administration. Serum glucose was measured on a Gilfordx400, and serum insulin was analyzed by using an Immuno-Enzymatic o-Phenylendiamine (OPD) method and Insulin-B test kit of WAKO (Japan). All measurements were made in duplicate.
(§5) As stated above, two healthy male volunteers […] participated in the study. One subject received the oral insulin of Example 4 twice over a two week period, once each week, receiving 0.20 and 0.27 IU per Kg of the oral insulin. […] Serum insulin level was peaked to 20 micro-U per ml occurring at 1.5 hours after the drug ingestion on both occasions.
(§6) Five IDDM Patients have completed all three phases of the study of test 5-A: i.e., they received 10 IU, subcutaneous injection of regular injectable insulin-40 (of Tong Shin Pharm Co. of Seoul, Korea) the first week; they received one single oral dosing of Example 4 (0.544 IU/kg average dose) one week later; and the next week they received 9 consecutive dosings of Example 4 (average dose was 0.544 IU/kg), given at 6-hour intervals.

serum glucose = assay: Test 5-A: hypoglycemic effects (serum glucose); type: in vivo, human
Procedure: as §2, §3, §4, §5
The second volunteer received 10 IU of regular injectable insulin-40 (of Tong Shin Pharm. Co. of Seoul, Korea), subcutaneously. […] They were given a glass of fresh orange juice and serum glucose level rose to about 115 mg/dl within one hour.
as §6
The Oral Insulin Example 4 was given to a total of 8 IDDM patients (10 trials) (two repeated the study) and 7 NIDDM patients (11 trials) (four patients repeated the study).
Seven IDDM Patients completed the study after oral administration of a single dose of the Example 5 oral insulin preparation.

[3] = Test 8: bioavailability of insulin (insulin levels in serum); type: in vivo, human; settings: Reg. Insulin 0.172 IU/Kg s.c.; Oral Insulin 0.630 IU/Kg; IDDM
Procedure: In two IDDM patients, bioavailability of insulin (insulin levels in serum) was measured after oral administration of Oral Insulin Formulation of Example 7 (0.63 I.U./Kg).
Compared to 0.172 IU/Kg of Regular Insulin, subcutaneous injection in 5 IDDM patients, the `pharmacokinetic and bioavailability` of insulin are as follows:
as §1

blood glucose levels = assay: Test 1-E: oral insulin in healthy male volunteers, blood glucose; type: in vivo, human
Procedure: In this test, the oral insulin composition of Example 1 was administered orally to two healthy male volunteers.
Two healthy volunteers, weighing 52 and 54 Kg participated in the study. Each subject received a 16 I.U. dose of the oral insulin composition of Example 1 during the study. Along with the oral insulin composition of Example 1, each participant received two capsules of lipolytic enzymes. Each capsule consisted of:
The enzyme capsules were made as follows: Pancreatic Lipase was coated with 0.1 to 0.3 microns thick coating of hydroxypropylecellulose and enteric coated with the coating of Example 1. Amylase and Protease were then added. The resultant composition was then coated with 0.1 micron of hydroxypropylcellulose. Bile Salts that had been coated with 0.1 micron of hydroxypropylcellulose was then added to a hard gel capsule with the Pancreatic Lipase resultant product.
At 7:30 am on the day of the trial, each participant consumed a standard breakfast consisting of two fried eggs, two strips of bacon, two slices of toasted dark bread, a tablespoon of butter, and cup of black coffee. The insulin composition of Example 1 was administered orally at 10:00 am to both subjects. The oral insulin was administered in capsules comprising 16 I.U. of Novo crystalline monocomponent porcine insulin. At 12:00 both subjects consumed a standard lunch consisting of 180 gm of beef steak, a tossed green salad with oil and vinegar dressing, a piece of dark bread, and black coffee.
Blood samples were collected from the subject at 10:00, 13:00 and 16:00 and were analyzed for blood glucose levels.
One week later, both volunteers had the standard breakfast (i.e., the breakfast given on the first day of the test) at the same time. At 10:00 both subjects received a subcutaneous injection of 16 I.U. of Tong-Shin regular injectable insulin-40. At approximately 10:30 both subjects began to experience hypoglycemic reactions which lasted for roughly two hours. Both subjects were served pure orange juice at 11:20 and were served the standard lunch at 12:00.

hypoglycemic response [4] = settings: oral, 150 IU/Kg, rabbits; cited from earlier work
blood sugar level = settings: oral with surfactants; cited from earlier work
[5] = intra-nasal, dogs; cited from earlier work
hypoglycemic response [6] = settings: aerosol, 2.5 U/Kg, rabbits; cited from earlier work
hypoglycemic effect [7] = settings: water/oil/water emulsion, rats; cited from earlier work
hypoglycemic effect [8] = settings: oral with isopropylfruorophosphate and indole-3-acetate, rats; cited from earlier work
hypoglycemic response [9] = settings: oral with pancreas inactivating agents; cited from earlier work
hypoglycemic effect [10] = settings: other emulsion systems with fat soluble vitamins, dogs; cited from earlier work
[11] = cited from earlier work
[12] = buccal, cocoa fat base and surfactant, dogs; cited from earlier work
[13] = Regular Insulin 0.172 IU/Kg s.c., Example 4 0.544 IU/Kg oral 1st dose, Example 5 0.649 IU/Kg oral 1st, fasting

## Actripid insulin: intravenous insulin solution (Novo)
Venous serum sugar level
  decrease of venous serum sugar level, compared between the two insulins: decreased by roughly an equal degree
Plasma glucose level; 1.26 IU intravenous
  plasma glucose level before infusion: 102 mg/dL
Plasma glucose level; 1.26 IU intravenous, within 3 hours
  plasma glucose level, return: 100 mg/dL
Plasma glucose level; 6 IU intra-duodenal, over three hours
  change of blood glucose level: No changes in the blood glucose levels

## Novo insulin: Novo monocomponent porcine crystalline insulin
[1]
  time of peak hypoglycemic effect: ≤ 30 min

## Regular Insulin
[1]
  time of peak hypoglycemic effect: 60 min
Serum glucose levels
  CO (printed 00), base value of glucose: 271 Mg/dl
  Cmin, minimum value of glucose observed: 94.5 Mg/dl
  T100, time to reach 100 mg/dl: 2.1
  TC-min, time of observing the minimum glucose level: 4.0
  dC/dT, rate of hypoglycemic action: 59.16
[2]
  IO, base value of Serum Insulin: 8.0 micro-U/ml
  Imax, maximum value of insulin: 20.3 micro-U/ml
  TI-O, time to reach the base value of Serum Insulin level: 4.8
  TI-max, time to reach the maximum Serum insulin level: 1.5
  dI/dT, rate of rise of serum insulin level: 38.29
Serum glucose; [13]
  CO, base value of Serum Glucose: 271 mg/dL
  Cmin, minimum value of glucose: 94.5 mg/dL
  T100, time to reach 100 mg/dl of serum glucose: 2.1
  TC-min, time of observing the minimum glucose level: 4.0
  dC/dT, rate of reduction in Serum Glucose levels: 59.16
Serum glucose; healthy volunteer, 10 IU subcutaneous
  time of insulin-induced shock symptoms: 72 min
Serum glucose; healthy volunteer, 10 IU subcutaneous, 72 minutes
  serum glucose at time of shock symptoms: 47 mg/dL
Serum glucose; healthy volunteer, 10 IU subcutaneous, within one hour of orange juice
  serum glucose after orange juice: about 115 mg/dl
[3]
  IO, base value of insulin: 8.0 micro-U/ml
  Imax, maximum value of serum insulin: 20.3 micro-U/ml
  TI-O, time to reach the base value of serum insulin: 4.8
  TI-max, time of observing the maximum value of serum insulin: 1.5
  dI/dt, rate of rise of serum insulin (absorption rate): 38.29
Blood glucose levels; 16 I.U. subcutaneous
  duration of hypoglycemic reactions: roughly two
  time of peak hypoglycemic effect: roughly 3 hours
Blood glucose levels; 16 I.U., 6 hours
  blood glucose / effect after six hours: the effect disappeared by 6 hours after administration

## beta-Naphthyl-azo-Polystearryle-insulin
Hypoglycemic response [4]
  hypoglycemic response: induced a hypoglycemic response

## insulin
Blood sugar level
  intravenous dose with effect on blood sugar equivalent to 35 units orally: 4 units
[5]
  bioavailability: high bioavailability
Hypoglycemic response [6]
  hypoglycemic response: induced hypoglycemic response
Hypoglycemic effect [7]
  intramuscular dose with effect equivalent to 250 IU/Kg orally: 10 IU/Kg
Hypoglycemic effect [8]
  hypoglycemic effect: induce a hypoglycemic effect
Hypoglycemic response [9]
  bioavailability equivalent of hypoglycemic response: 3%
Hypoglycemic effect [10]
  hypoglycemic effects: mild and not dose responsive
[11]
  bioactivity after oral administration: low bioactivities
[12]
  bioavailability: only poor bioavailability
